Measurements published in PMC8121805, “Discovery of first-in-class inhibitors of ASH1L histone methyltransferase with anti-leukemic activity” (Nature Communications, 2021).
pKd: −log10 of the molar value. Values joined by “and” are separate entries in the source; they are usually repeats but may differ in a detail not shown here. Identical values can stand only once. “Also recorded” adds a separate entry of the source.

Experiments:
[1] = test system: MV4;11 cells; test: MTT cell viability assay; assay type: cell-based, human; conditions: for MV4;11 % activity: Fig S7a
Description: (§1) FBS and 1% penicillin/streptomycin. […] Media was changed on day 3 or 4 and compounds were resupplied. […] Cell suspensions (100 μL) were transferred to the 96-well plates for each sample in quadruplicate at the time of media change. At day 7, 10 µL of MTT reagent (M6494, Molecular Probes™) was added to each well of the 96 well plate and incubated at 37 °C for 4 h. The formazan was then solubilized by adding 100 µL acidified 10% SDS solution and incubated at 37 °C overnight. Plates were read for absorbance at 570 nm using a PHERAstar BMG microplate reader. The experiments were performed two times in quadruplicates with calculation of mean and SD for each condition. Data were analyzed in Prism 8.0.0 to obtain GI50 values.
(§2) Supplementary Figure 7. […] (a)
(§3) Titration curves from the MTT cell viability assay performed after 4, 7, and 11 (or 10) days of
(§4) Titration curves from the MTT cell viability assay performed after 7 days of treatment of KOPN8 ,
(§5) MOLM13 and MV4;11 cell lines harboring MLL1 translocation (MLL1-r) or K562 cell line (non-
(§6) Representative graphs are shown
(§7) from two independent MTT experiments performed for each cell line.

[2] = test system: MOLM13 cells; test: MTT cell viability assay; assay type: cell-based, human; conditions: Fig S7b
Description: as §1, §2, §3, §4, §5, §6, §7

[3] = test system: MLL leukemia cells (MV4;11, MOLM13, KOPN8, RS4;11); test: MTT cell viability assay, MLL leukemia cells as a group; assay type: cell-based, human; conditions: Homo sapiens, MLL leukemia cells
Description: (§8) Human leukemia cells K562, MV4;11 and RS4;11 (purchased from ATCC) and KOPN8, MOLM13 (purchased from DSMZ) were cultured in RPMI 1640 (Invitrogen) supplemented with 10% heat inactivated (h.i.) FBS and 1% penicillin/streptomycin (Invitrogen). SET2 cells (purchased from DSMZ) were cultured in RPMI 1640 supplemented with 20% h.i. FBS and 1% penicillin/streptomycin. Cells were plated at 1 × 10^5 to 2 × 10^5 cells/mL depending on cell line and treated with 0.25% DMSO or varying concentrations of compounds and incubated at 37 °C, 5% CO2 incubator for 7 days. Media was changed on day 3 or 4 and compounds were resupplied. […] Cell suspensions (100 μL) were transferred to the 96-well plates for each sample in quadruplicate at the time of media change. At day 7, 10 µL of MTT reagent (M6494, Molecular Probes™) was added to each well of the 96 well plate and incubated at 37 °C for 4 h. The formazan was then solubilized by adding 100 µL acidified 10% SDS solution and incubated at 37 °C overnight. Plates were read for absorbance at 570 nm using a PHERAstar BMG microplate reader. The experiments were performed two times in quadruplicates with calculation of mean and SD for each condition. Data were analyzed in Prism 8.0.0 to obtain GI50 values.
Supplementary Figure 4. Cell viability assay for AS-6 in MLL leukemia cell lines. Titration curves from the MTT cell viability assay performed after 7 days of treatment of human MLL1- […]
replicates. Representative graphs are shown from two independent MTT experiments performed […]
as §2
Titration curves from the MTT cell viability assay performed after 4, 7, and 11 (or 10) days of […]
Titration curves from the MTT cell viability assay performed after 7 days of treatment of KOPN8 , MOLM13 and MV4;11 cell lines harboring MLL1 translocation (MLL1-r) or K562 cell line (non- […]
Representative graphs are shown from two independent MTT experiments performed for each cell line. GI50 values correspond to […]

[4] = test system: K562 cells; test: MTT cell viability assay; assay type: cell-based, human; conditions: for % activity: Fig S7b
Description: as §8, §2, §3, §4, §5, §6
(§9) from two independent MTT experiments performed for each cell line. GI50 values correspond to […]

[5] = test system: KOPN8 cells; test: MTT cell viability assay; assay type: cell-based, human; conditions: Fig S7a
Description: as §8, §2, §3, §4, §5, §6, §9

[6] = target: T1, ASH1L S2259M (Homo sapiens, UniProt Q9NR48, S2264M); test: NMR binding to S2259M mutant; conditions: NMR chemical shift perturbations
T1 construct: ASH1L SET domain (2069–2288) in the buffer; made in house
Description: For fragment screening, we used an in-house library of 1600 fragment-like compounds with the following properties: average Mw = 183 Da (range of 84–345 Da), mean clogP = 1.5 (from −2.5 to 3.7), hydrogen bond acceptors: from 0 to 6 (median = 3), hydrogen bond donors: 0 to 3 (median = 1).
Supplementary Figure 2. Binding of ASH1L inhibitors. (a) Superposition of the H- N TROSY-HSQC spectra of 100 µM ASH1L SET with 5% DMSO (black) or with 1 mM of compound 1 (red). Most perturbed residues are marked in boxes. (b) Superposition of the crystal structure of ASH1L SET domain (4YNM in PDB) and S2259M mutant of ASH1L (4YNP in PDB). (c) Superposition of the 1H-15N TROSY-HSQC spectra of 100 µM ASH1L S2259M mutant

[7] = target: T2, ASH1L SET domain (Homo sapiens, UniProt Q9NR48); test: NMR titration (1H-15N TROSY-HSQC); assay type: binding; conditions: linear chemical shift perturbations up to 1 mM
T2 construct: ASH1L SET domain (amino acids 2069–2288) was expressed and purified; Mocr (N, cleaved yes); made in house; host or cells: E. coli BL21(DE3)

## NC(=S)c1cccc(-c2cn(C3CCN(S(=O)(=O)C(F)(F)F)CC3)c3cc(CNC(=O)C4CNC4)ccc23)c1 [AS-85]
[1]; log[AS-85] -4.60206, d4
  MV4;11 % activity: 15.9329% and 16.3522% and 18.0892% and 16.4121%
[1]; log[AS-85] -4.60206, d7
  MV4;11 % activity: 5.045% and 5.128% and 5.211%
[1]; log[AS-85] -4.60206, d11
  MV4;11 % activity: 1.161% and 1.032% and 1.118%
[1]; log[AS-85] -4.90309, d4
  MV4;11 % activity: 70.8595% and 67.0859% and 71.758% and 64.1509%
[1]; log[AS-85] -4.90309, d7
  MV4;11 % activity: 25.0571% and 25.9705% and 23.8115% and 22.3998%
[1]; log[AS-85] -4.90309, d11
  MV4;11 % activity: 9.6743% and 10.0613% and 9.029% and 8.943%
[1]; log[AS-85] -5.20412, d4
  MV4;11 % activity: 102.965% and 99.1914% and 99.9102% and 86.1336%
[1]; log[AS-85] -5.20412, d7
  MV4;11 % activity: 53.1243% and 51.7127% and 52.7922% and 54.6191%
[1]; log[AS-85] -5.20412, d11
  MV4;11 % activity: 37.1063% and 36.8053% and 36.9343% and 41.621%
[1]; log[AS-85] -5.50515, d4
  MV4;11 % activity: 92.5427% and 88.3498% and 97.8736% and 88.7691%
[1]; log[AS-85] -5.50515, d7
  MV4;11 % activity: 76.7075% and 69.8983% and 73.8011% and 68.8188%
[1]; log[AS-85] -5.50515, d11
  MV4;11 % activity: 72.8797% and 78.2113% and 64.4953% and 71.1168%
[1]; log[AS-85] -5.80618, d11
  MV4;11 % activity: 77.7384% and 83.5429% and 90.8524%
[1]; log[AS-85] -6.10721, d4
  MV4;11 % activity: 94.4594% and 94.1599% and 94.5792% and 108.955%
[1]; log[AS-85] -6.10721, d7
  MV4;11 % activity: 101.951% and 92.1528% and 106.186% and 104.11%
[1]; log[AS-85] -6.10721, d11
  MV4;11 % activity: 89.8205% and 93.8192% and 105.127% and 95.5821%
[1]; log[AS-85] -6.40824, d4
  MV4;11 % activity: 98.1731% and 105.9% and 87.9305% and 107.996%
[1]; log[AS-85] -6.40824, d7
  MV4;11 % activity: 98.879% and 95.8896% and 100.374% and 104.858%
[1]; log[AS-85] -6.40824, d11
  MV4;11 % activity: 115.404% and 96.872% and 95.3671% and 92.3573%
[1]; Fig S7b, MV4;11, log[AS-85] -5.80618
  % activity: 90.492% and 84.4301% and 90.3259% and 90.8242%
[2]; MOLM-13, log[AS-85] -4.60206
  % activity: 46.6646% and 47.2766% and 46.175% and 47.0318%
[2]; MOLM-13, log[AS-85] -4.90309
  % activity: 81.426% and 94.7674% and 77.6316% and 82.4051%
[2]; MOLM-13, log[AS-85] -5.20412
  % activity: 87.0563% and 95.9914% and 92.6867% and 98.1946%
[2]; MOLM-13, log[AS-85] -5.50515
  % activity: 82.6499% and 85.9547% and 94.1555% and 88.7699%
[2]; MOLM-13, log[AS-85] -5.80618
  % activity: 80.9364% and 84.3635% and 82.1603% and 93.6659%
[2]; MOLM-13, log[AS-85] -6.10721
  % activity: 97.5826% and 103.213% and 93.6659% and 105.539%
[2]; MOLM-13, log[AS-85] -6.40824
  % activity: 70.6548% and 70.0428% and 76.1628% and 72.1236%
[3]
  GI50: 5 to 25 µM
[4]; K562, log[AS-85] -4.60206
  % activity: 94.8724% and 99.1495% and 96.3791% and 94.0462%
[4]; K562, log[AS-85] -4.90309
  % activity: 126.464% and 120.486% and 116.938% and 123.451%
[4]; K562, log[AS-85] -5.20412
  % activity: 111.154% and 105.225% and 103.767% and 109.259%
[4]; K562, log[AS-85] -5.50515
  % activity: 104.836% and 103.329% and 104.35% and 109.745%
[4]; K562, log[AS-85] -5.80618
  % activity: 94.1434% and 95.2126% and 95.6501% and 103.183%
[4]; K562, log[AS-85] -6.10721
  % activity: 95.2612% and 103.524% and 101.142% and 100.073%
[4]; K562, log[AS-85] -6.40824
  % activity: 94.0462% and 95.8931% and 100.705% and 97.4484%
[4]; leukemia cells without MLL1 translocations
  effect on growth/proliferation of K562 cells: no effect
[5]; log[AS-85] -4.60206, d4
  KOPN8 % activity: 16.3539% and 14.6687% and 8.541% and 8.847%
[5]; log[AS-85] -4.60206, d7
  KOPN8 % activity: 5.4864%
[5]; log[AS-85] -4.60206, d10
  KOPN8 % activity: 12.6028% and 11.8131% and 12.208%
[5]; log[AS-85] -4.90309, d4
  KOPN8 % activity: 78.3991% and 80.3907% and 79.1651% and 80.3906%
[5]; log[AS-85] -4.90309, d7
  KOPN8 % activity: 47.9023% and 50.2997% and 49.1932% and 51.4062%
[5]; log[AS-85] -4.90309, d10
  KOPN8 % activity: 23.001% and 25.765% and 16.1566% and 29.977%
[5]; log[AS-85] -5.20412, d4
  KOPN8 % activity: 76.2543% and 85.293% and 81.9226% and 91.2677%
[5]; log[AS-85] -5.20412, d7
  KOPN8 % activity: 72.4297% and 74.2739% and 78.5154% and 71.5076%
[5]; log[AS-85] -5.20412, d10
  KOPN8 % activity: 57.6176% and 47.8776% and 61.0398% and 75.3866%
[5]; log[AS-85] -5.50515, d4
  KOPN8 % activity: 81.7694% and 85.9058% and 95.8637% and 96.7828%
[5]; log[AS-85] -5.50515, d7
  KOPN8 % activity: 82.5726% and 92.5311% and 77.2245% and 78.5154%
[5]; log[AS-85] -5.50515, d10
  KOPN8 % activity: 103.817% and 88.6805% and 64.9885% and 80.7832%
[5]; log[AS-85] -5.80618, d4
  KOPN8 % activity: 78.2459% and 90.8081% and 100.766% and 94.0253%
[5]; log[AS-85] -5.80618, d7
  KOPN8 % activity: 80.7284% and 79.9908% and 94.5597% and 75.0115%
[5]; log[AS-85] -5.80618, d10
  KOPN8 % activity: 93.8137% and 85.6532% and 79.9934% and 79.7302%
[5]; log[AS-85] -6.10721, d4
  KOPN8 % activity: 86.825% and 91.4209% and 95.8637% and 91.5741%
[5]; log[AS-85] -6.10721, d7
  KOPN8 % activity: 99.9078% and 107.284% and 86.6298% and 85.5233%
[5]; log[AS-85] -6.10721, d10
  KOPN8 % activity: 118.032% and 101.579% and 87.2326% and 93.1556%
[5]; log[AS-85] -6.40824, d4
  KOPN8 % activity: 98.6212% and 103.37% and 102.911% and 95.0977%
[5]; log[AS-85] -6.40824, d7
  KOPN8 % activity: 100.461% and 105.072% and 99.7234% and 94.7441%
[5]; log[AS-85] -6.40824, d10
  KOPN8 % activity: 81.3096% and 91.971% and 84.7318% and 80.9148%

## NC(=S)c1cccc(-n2cccc2)c1 [compound 1]
[6]
  binding to ASH1L S2259M mutant: no binding; also recorded: not bind to the S2259M mutant
[7]
  pKd: < 3.00
